Test results: PubChem BioAssay (NCI)
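Each compound was tested at five concentrations against cells in 96-well plates for 48 hours. TGI: total growth inhibition.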 Where a SMILES comes first, the peptide text is derived from it. [ ]: non-standard residue; d: D form. ΔPro = O=C(O)[CH]1C=CCN1

Tests used:
Experiment in all cases: NCI anticancer screen, dose series, 48 h
MOLT-4 leukemia = system: MOLT-4 leukemia
NCI-H226 lung = system: NCI-H226 lung
HCC-2998 colon = system: HCC-2998 colon
HS 578T breast = system: HS 578T breast
OVCAR-4 ovarian = system: OVCAR-4 ovarian
NCI/ADR-RES ovarian = system: NCI/ADR-RES ovarian
A498 renal = system: A498 renal
SN12C renal = system: SN12C renal
EKVX NSCLC = system: EKVX NSCLC
HT29 colon = system: HT29 colon
OVCAR-8 ovarian = system: OVCAR-8 ovarian
786-0 renal = system: 786-0 renal
SNB-75 CNS = system: SNB-75 CNS
SK-MEL-5 melanoma = system: SK-MEL-5 melanoma
HL-60(TB) leukemia = system: HL-60(TB) leukemia

O=C(OCc1ccccc1)C(Cc1ccc(OCc2ccccc2)cn1)NC(=O)C(F)(F)F (stereo not given)
TGI (MOLT-4 leukemia): > 100 µM | TGI (NCI-H226 lung): > 100 µM | TGI (HCC-2998 colon): > 100 µM | TGI (HS 578T breast): > 100 µM | TGI (OVCAR-4 ovarian): > 100 µM | TGI (NCI/ADR-RES ovarian): > 100 µM | TGI (A498 renal): > 100 µM | TGI (SN12C renal): > 100 µM | TGI (EKVX NSCLC): > 100 µM | TGI (HT29 colon): > 100 µM | TGI (OVCAR-8 ovarian): > 100 µM | TGI (786-0 renal): > 100 µM | TGI (SNB-75 CNS): 98.8 µM | TGI (SK-MEL-5 melanoma): > 100 µM | TGI (HL-60(TB) leukemia): > 100 µM

O=C(O)C1C=CCN1C(=O)C1C=CCN1C(=O)C1C=CCN1 (stereo not given) (H-[ΔPro]-[ΔPro]-[ΔPro]-OH; configuration not given here)
TGI (MOLT-4 leukemia): > 100 µM | TGI (NCI-H226 lung): > 100 µM | TGI (HCC-2998 colon): > 100 µM | TGI (HS 578T breast): > 100 µM | TGI (OVCAR-4 ovarian): > 100 µM | TGI (NCI/ADR-RES ovarian): > 100 µM | TGI (A498 renal): > 100 µM | TGI (SN12C renal): > 100 µM | TGI (EKVX NSCLC): > 100 µM | TGI (HT29 colon): > 100 µM | TGI (OVCAR-8 ovarian): > 100 µM | TGI (786-0 renal): > 100 µM | TGI (SNB-75 CNS): > 100 µM | TGI (SK-MEL-5 melanoma): > 100 µM | TGI (HL-60(TB) leukemia): > 100 µM
